pIC50: −log10 of the molar value. Where two headings read alike, the source gives them in different places.
Key:
VEGF gene = assay: Cell-based luciferase reporter assay, pVEGF-Luc in HeLa cells; conditions: Homo sapiens, compound 100 μM, 24 hrs
Text: (§1) A luciferase assay was used to determine the changes in transcription amount of EPO and VEGF genes in cells. For the luciferase assay, a human HIF I a gene was first cloned into an animal cell expression vector, pFlag-CMV, to prepare a pFlag-HIF1α vector, and a hypoxia responsible element (HRE) sequence of an EPO gene 3′-enhancer domain was then cloned upstream of luciferase and TK promoter genes to prepare a pEPO HRE-Luc expression vector. Also, the promoter and luciferase domains of the VEGF gene were cloned into a pGL3-basic vector to prepare a pVEGF-Luc expression vector. HeLa cells were seed-cultured in a medium dish to grow to about 70-80% density one day before the HeLa cells were to be used. The HeLa cells were transfected with each of the prepared pEPO HRE-Luc and pVEGF-Luc expression vectors together with the pFlag-HIF1α and the Renilla luciferase expression vector (Promega, Madison, Wis., USA), by using LipofectAMINE PLUS™ (Invitrogen Life Technologies, Carlsbad Calif.). Three hours after the transfection, the medium was exchanged with DMEM, 1% Penicillin-Streptomycin in 10% FBS supplemented with serum. At this time, cultured cells were treated with each of the compounds at the concentrations indicated. Then, the cells were cultured for 24 hrs in an incubator that was maintained under conditions of 37° C., 20% O2 and 5% CO2. After culturing, cells were washed twice with cold phosphate buffer saline (PBS). Luciferase activity of the cells was measured using the dual luciferase assay system (Promega, Madison, Wis., USA).

EPO gene = assay: Cell-based luciferase reporter assay, pEPO HRE-Luc in HeLa cells; conditions: Homo sapiens, compound 100 μM, 24 hrs, read-out: EPO fold induction over control
Text: as §1

HIF-PH2 (EGLN1) = target: T1, HIF-PH2 (EGLN1) (Homo sapiens, UniProt Q9GZT9); assay: HIF-PH2 (PHD2) assay (fluorescence polarization method); assay type: biochemical; conditions: 200 nM HIF PH2 enzyme, 50 nM peptide substrate, 30° C. one hour; read-out: IC50 (HIF PH2 inhibition activity)
T1 construct: made in house; host or cells: E. coli
Protocol: HIF-PH2 (EGLN1) was expressed from E. coli cells, and purified using two process: an Ni-affinity chromatography column and a size-exclusion chromatography column.
To evaluate activities of an HIF PH2 inhibitor, HIF PH2 enzyme that was first overexpressed by genetic recombination and then purified was used to perform an enzyme reaction. […] At this time, 2 mM ascorbic acid and 5 mM ketoglutarate with 100 μM FeCl2 or without FeCl2, were used together with crude enzyme. A concentration of HIF PH2 inhibitor to be tested was treated and reacted at 30° C. for one hour. After the reaction, the resulting reaction product was boiled at 95° C. for one minute to suppress the enzyme reaction.
To determine whether prolyl hydroxylation occurs in the substrate as the secondary reaction, 500 nM GST-VBC (GST-VHL-Elongin B-Elongin C) protein was added to a reaction buffer (50 mM Tris-Cl (pH8.0), 120 mM NaCl, 0.5% Nonidet P40), and a GST-VBC binding reaction was carried out at room temperature for 30 minutes.
A fluorescence polarization value of a sample that is not treated with the HIF PH2 inhibitor was used as 100% control, and the activities of the HIF PH2 inhibitor were measured as percentage of the remaining HIF PH2 enzyme activity in samples treated with a concentration of the HIF PH2 inhibitor to be tested.

EPO = assay: Human EPO immunoassay (ELISA of Hep3B culture media); assay type: cell-based; conditions: Hep3B cells, compound at 100 μM, 24-hour incubation; for EPO (mIU/ml): culture media ELISA; for fold induction at 100 µM: Homo sapiens, read-out: Fold Induction over control (EPO Induction)
Protocol: Human cells derived from hepatocarcinoma (Hep3B) tissue (see, e.g., American Type Culture Collection, Manassas Va.) were grown at 37° C., 20% O2, 5% CO2 in DMEM (GIBCO)+10% FBS, 4.5 g/L D-Glucose; L-Glutamate and 110 mg/L sodium pyruvate. Ninety-six well plates were seeded with 4×10^4 HEP3B cells/well. The media was removed and replaced with DMEM+10% FBS. Compounds were added to wells at concentrations between 1 μM-100 μM for a 24-hour incubation. Cell culture media was harvested and EPO concentration was determined using a Human Erythropoietin Quantikine IVD ELISA Kit (R&D Systems®, Minneapolis, Minn.) following the manufacturer's instructions for the benchtop assay.

[1] = read-out: VEGF 1 fold induction over control
[2] = read-out: VEGF 2 fold induction over control

T1 sequence (Q9GZT9 whole entry, species assumed): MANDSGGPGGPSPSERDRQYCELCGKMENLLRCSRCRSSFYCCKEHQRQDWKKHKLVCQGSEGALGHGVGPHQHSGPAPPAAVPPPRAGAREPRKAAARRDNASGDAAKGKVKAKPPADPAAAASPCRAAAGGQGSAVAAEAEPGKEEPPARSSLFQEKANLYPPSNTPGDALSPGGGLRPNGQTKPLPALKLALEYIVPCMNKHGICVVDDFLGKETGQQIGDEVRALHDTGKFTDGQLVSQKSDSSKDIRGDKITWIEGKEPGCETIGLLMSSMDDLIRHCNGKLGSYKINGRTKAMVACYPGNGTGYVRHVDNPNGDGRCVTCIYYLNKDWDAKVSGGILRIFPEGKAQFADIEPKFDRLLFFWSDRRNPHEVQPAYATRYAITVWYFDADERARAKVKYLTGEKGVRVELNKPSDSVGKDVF

| Structure (SMILES) | pIC50 (HIF-PH2 (EGLN1)) | fold induction at 100 µM (VEGF gene; [1]) | fold induction at 100 µM (EPO gene) | fold induction at 100 µM (VEGF gene; [2]) | EPO (mIU/ml) (EPO) | fold induction at 100 µM (EPO) |
| --- | --- | --- | --- | --- | --- | --- |
| O=C(NCc1ccccc1)c1nc(Br)c2c(sc3ccccc32)c1O [1-Bromo-4-hydroxy-benzo[4,5]thieno[3,2-c]pyridine-3-carboxylic acid benzylamide] | 4.00 to 4.59 | < 2 | < 2 | – | – | – |
| N#Cc1nc(C(=O)NCC(=O)O)c(O)c2sc3ccccc3c12 [[(1-Cyano-4-hydroxy-benzo[4,5]thieno[3,2-c]pyridine-3-carbonyl)-amino]-acetic acid] | – | 2.1 to 4 | < 2 | – | – | – |
| C[C@H](NC(=O)c1nc(Br)c2c(sc3ccccc32)c1O)C(=O)O [(S)-2-[(1-Bromo-4-hydroxy-benzo[4,5]thieno[3,2-c]pyridine-3-carbonyl)-amino]-propionic acid] | 4.00 to 4.59 | > 4.1 | 2.1 to 4 | – | – | – |
| COc1ccc(Cn2nnnc2CNC(=O)c2nc(Br)c3c(sc4ccccc43)c2O)cc1 [1-Bromo-4-hydroxy-benzo[4,5]thieno[3,2-c]pyridine-3-carboxylic acid [1-(4-methoxy-benzyl)-1H-tetrazol-5-ylmethyl]-amide] | 4.00 to 4.59 | < 2 | < 2 | – | – | – |
| O=C(O)CNC(=O)c1nc(Cl)c2c(sc3ccccc32)c1O [[(1-Chloro-4-hydroxy-benzo[4,5]thieno[3,2-c]pyridine-3-carbonyl)-amino]-acetic acid] | – | > 4.1 | > 4.1 | > 4.1 | J (J = 21-40 mIU/ml) | 21 to 50 |
| C[C@H](NC(=O)c1nc(Cl)c2c(sc3ccccc32)c1O)C(=O)O [(S)-2-[(1-Chloro-4-hydroxy-benzo[4,5]thieno[3,2-c]pyridine-3-carbonyl)-amino]-propionic acid] | 4.00 to 4.59 | > 4.1 | 2.1 to 4 | – | – | – |
| O=C(O)CNC(=O)c1ncc2c(cnn2-c2ccccc2)c1O [[(4-Hydroxy-1-phenyl-1H-pyrazolo[3,4-c]pyridine-5-carbonyl)-amino]-acetic acid] | > 4.60 | 2.1 to 4 | > 4.1 | – | – | – |
| O=C(O)CNC(=O)c1nc(Cl)c2c(sc3ccc([N+](=O)[O-])cc32)c1O [[(1-Chloro-4-hydroxy-8-nitro-benzo[4,5]thieno[3,2-c]pyridine-3-carbonyl)-amino]-acetic acid] | > 4.60 | > 4.1 | 2.1 to 4 | – | – | – |
| COc1ccc(Cn2nnc(CNC(=O)c3nc(Br)c4c(sc5ccccc54)c3O)n2)cc1 [1-Bromo-4-hydroxy-benzo[4,5]thieno[3,2-c]pyridine-3-carboxylic acid [2-(4-methoxy-benzyl)-2H-tetrazol-5-ylmethyl]-amide] | > 4.60 | 2.1 to 4 | < 2 | – | – | – |
| CN(C)c1ccc2sc3c(O)c(C(=O)NCC(=O)O)nc(Cl)c3c2c1 [[(1-Chloro-8-dimethylamino-4-hydroxy-benzo[4,5]thieno[3,2-c]pyridine-3-carbonyl)-amino]-acetic acid] | > 4.60 | > 4.1 | > 4.1 | – | – | – |

The next lines start with results.

| pIC50 (HIF-PH2 (EGLN1)) | Structure (SMILES) | fold induction at 100 µM (VEGF gene; [1]) | fold induction at 100 µM (EPO gene) | fold induction at 100 µM (VEGF gene; [2]) | EPO (mIU/ml) (EPO) | fold induction at 100 µM (EPO) |
| --- | --- | --- | --- | --- | --- | --- |
| > 4.60 | CC(=O)Nc1ccc2sc3c(O)c(C(=O)NCC(=O)O)nc(Cl)c3c2c1 [[(8-Acetylamino-1-chloro-4-hydroxy-benzo[4,5]thieno[3,2-c]pyridine-3-carbonyl)-amino]-acetic acid] | – | – | < 2 | – | – |
| > 4.60 | O=C(O)CNC(=O)c1nc(Br)c2c(sc3ccccc32)c1O [[(1-Bromo-4-hydroxy-benzo[4,5]thieno[3,2-c]pyridine-3-carbonyl)-amino]-acetic acid] | 4 | > 4.1 | – | – | – |
| > 4.60 | O=C(O)CNC(=O)c1nc(Cl)c2c(cnn2-c2ccccc2)c1O [[(7-Chloro-4-hydroxy-1-phenyl-1H-pyrazolo[3,4-c]pyridine-5-carbonyl)-amino]-acetic acid] | 2.1 to 4 | > 4.1 | – | – | – |
| > 4.60 | Nc1ccc2sc3c(O)c(C(=O)NCC(=O)O)nc(Cl)c3c2c1 [3-(Carboxymethyl-carbamoyl)-1-chloro-4-hydroxy-benzo[4,5]thieno[3,2-c]pyridin-8-yl-ammonium] | 2.1 to 4 | 2.1 to 4 | – | – | – |
| > 4.60 | O=C(O)CNC(=O)c1nc(Cl)c2c(sc3cccc(F)c32)c1O [[(1-Chloro-9-fluoro-4-hydroxy-benzo[4,5]thieno[3,2-c]pyridine-3-carbonyl)-amino]-acetic acid] | – | – | 2.1 to 4 | K (K = 41-60 mIU/ml) | > 71 |
| > 4.60 | O=C(O)CNC(=O)c1nc(Cl)c2c(sc3cc(F)ccc32)c1O [[(1-Chloro-7-fluoro-4-hydroxy-benzo[4,5]thieno[3,2-c]pyridine-3-carbonyl)-amino]-acetic acid] | > 4.1 | > 4.1 | – | K (K = 41-60 mIU/ml) | 51 to 70 |
| > 4.60 | O=C(O)CNC(=O)c1nc(Cl)c2c(sc3c(F)cccc32)c1O [[(1-Chloro-6-fluoro-4-hydroxy-benzo[4,5]thieno[3,2-c]pyridine-3-carbonyl)-amino]-acetic acid] | 2.1 to 4 | 2.1 to 4 | – | I (I = 0-20 mIU/ml) | < 20 |
| > 4.60 | O=C(NCc1ccccn1)c1nc(Br)c2c(sc3ccccc32)c1O [1-Bromo-4-hydroxy-benzo[4,5]thieno[3,2-c]pyridine-3-carboxylic acid (pyridin-2-ylmethyl)-amide] | 2.1 to 4 | < 2 | – | – | – |
| > 4.60 | O=C(O)CNC(=O)c1nc(Cl)c2c(sc3ccc(F)cc32)c1O [[(1-Chloro-8-fluoro-4-hydroxy-benzo[4,5]thieno[3,2-c]pyridine-3-carbonyl)-amino]-acetic acid] | 2.1 to 4 | > 4.1 | – | J (J = 21-40 mIU/ml) | 21 to 50 |

— patent publication US20110028507A1, “PYRIDINE DERIVATIVES AND METHODS OF USE THEREOF” (CRYSTALGENOMICS, INC., priority 2007, published 2011)
